Measurements published in patent US20080188518A1 (priority 2003, published 2008).

Target: α7 nAChR subtype (Rattus norvegicus, UniProt Q05941)
Type: binding
Conditions: read-out: KD of radioligand (saturation curves, one site model)

Chain of α7 nAChR subtype (Q05941 23-502 limits assumed): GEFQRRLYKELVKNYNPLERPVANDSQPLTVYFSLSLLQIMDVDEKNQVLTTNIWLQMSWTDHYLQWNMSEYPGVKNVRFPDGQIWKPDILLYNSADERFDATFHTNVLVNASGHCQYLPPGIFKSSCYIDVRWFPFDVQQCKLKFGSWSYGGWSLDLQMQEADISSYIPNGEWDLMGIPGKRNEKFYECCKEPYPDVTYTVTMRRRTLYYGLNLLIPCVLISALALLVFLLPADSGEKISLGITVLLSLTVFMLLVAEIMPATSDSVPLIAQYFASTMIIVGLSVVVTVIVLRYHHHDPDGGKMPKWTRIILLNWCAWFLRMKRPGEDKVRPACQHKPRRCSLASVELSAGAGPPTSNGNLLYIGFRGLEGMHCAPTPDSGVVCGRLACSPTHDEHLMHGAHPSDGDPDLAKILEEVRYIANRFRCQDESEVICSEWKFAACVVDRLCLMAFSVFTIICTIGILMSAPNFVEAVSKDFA

## 125I-α-Bungarotoxin [[^125I]-α-BTX]
  Kd: 1.67 nM
